Test results from patent US7579469B2, “Glucocorticoid mimetics, methods of making them, pharmaceutical compositions, and uses thereof” (Boehringer Ingelheim Pharmaceuticals, Inc., priority 2003, dated 2009).

What follows are molecules tested against T1, human glucocorticoid receptor (GR) complex (Homo sapiens, UniProt P04150) (assay: Glucocorticoid receptor competitive binding assay (fluorescence polarization)). Conditions: competition with TAMRA-labeled dexamethasone.
T1 construct: made in house; host or cells: insect expression system (baculovirus lysate)
T1 sequence (P04150 1-777): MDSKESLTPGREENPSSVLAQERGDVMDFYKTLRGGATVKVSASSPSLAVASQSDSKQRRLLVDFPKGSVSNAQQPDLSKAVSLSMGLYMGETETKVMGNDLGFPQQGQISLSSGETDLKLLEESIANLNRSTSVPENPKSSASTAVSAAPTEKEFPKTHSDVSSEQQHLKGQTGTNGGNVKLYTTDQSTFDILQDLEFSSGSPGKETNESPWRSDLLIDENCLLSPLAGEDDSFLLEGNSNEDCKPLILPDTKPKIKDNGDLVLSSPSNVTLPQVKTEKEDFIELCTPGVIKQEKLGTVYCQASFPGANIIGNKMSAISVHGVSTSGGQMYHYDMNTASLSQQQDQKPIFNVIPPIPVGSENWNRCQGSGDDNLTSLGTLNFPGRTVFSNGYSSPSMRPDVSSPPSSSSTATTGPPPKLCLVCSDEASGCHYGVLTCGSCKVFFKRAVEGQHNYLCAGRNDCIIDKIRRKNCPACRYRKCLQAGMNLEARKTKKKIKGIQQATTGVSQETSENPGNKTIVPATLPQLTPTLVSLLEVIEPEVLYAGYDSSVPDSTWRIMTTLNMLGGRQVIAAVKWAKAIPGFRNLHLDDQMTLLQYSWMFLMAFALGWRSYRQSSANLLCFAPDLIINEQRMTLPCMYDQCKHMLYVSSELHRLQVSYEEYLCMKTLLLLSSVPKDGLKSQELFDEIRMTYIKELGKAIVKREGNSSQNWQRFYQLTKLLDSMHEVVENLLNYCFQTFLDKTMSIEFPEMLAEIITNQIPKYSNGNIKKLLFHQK
Experimental: Compounds of the invention were evaluated for binding to the steroid receptor by a fluorescence polarization competitive binding assay.
A. Glucocorticoid Receptor Competitive Binding Assay
Step 1. Characterization of the Fluorescent Probe
The wavelengths for maximum excitation and emission of the fluorescent probe should first be measured. An example of such a probe is rhodamine (TAMRA)-labeled dexamethasone.
The affinity of the probe for the steroid receptor was then determined in a titration experiment. The fluorescence polarization value of the probe in assay buffer was measured on an SLM-8100 fluorometer using the excitation and emission maximum values described above. Aliquots of expression vector lysate were added and fluorescence polarization was measured after each addition until no further change in polarization value was observed. Non-linear least squares regression analysis was used to calculate the dissociation constant of the probe from the polarization values obtained for lysate binding to the probe.
Step 2. Screening for Inhibitors of Probe Binding
This assay uses fluorescence polarization (FP) to quantitate the ability of test compounds to compete with tetramethyl rhodamine (TAMRA)-labeled dexamethasone for binding to a human glucocorticoid receptor (GR) complex prepared from an insect expression system. The assay buffer was: 10 mM TES, 50 mM KCl, 20 mM Na2MoO4.2H20, 1.5 mM EDTA, 0.04% w/v CHAPS, 10% v/v glycerol, 1 mM dithiothreitol, pH 7.4. Test compounds were dissolved to 1 mM in neat DMSO and then further diluted to 10× assay concentration in assay buffer supplemented with 10% v/v DMSO. Test compounds were serially diluted at 10× assay concentrations in 10% DMSO-containing buffer in 96-well polypropylene plates. Binding reaction mixtures were prepared in 96-well black Dynex microtiter plates by sequential addition of the following assay components to each well: 15 μL of 10× test compound solution, 85 μL of GR-containing baculovirus lysate diluted 1:170 in assay buffer, and 50 μL of 15 nM TAMRA-labeled dexamethasone. Positive controls were reaction mixtures containing no test compound; negative controls (blanks) were reaction mixtures containing 0.7 μM to 2 μM dexamethasone. […] IC50 values were determined by iterative non-linear curve fitting of the FP signal data to a 4-parameter logistic equation.

Activity in the GR binding assay, potent activity:
COc1ccc(C(C)=O)cc1C(C)(C)CC(O)(Cn1ccc(=O)c2ccccc21)C(F)(F)F (stereo not drawn) [1-[4-(5-Acetyl-2-methoxyphenyl)-2-hydroxy-4-methyl-2-trifluoromethylpentyl]-1H-quinolin-4-one]
CC(C)(CC(O)(Cn1ccc(=O)c2ccccc21)C(F)(F)F)c1cccc2c1OCO2 (stereo not drawn)
CC1(CC(O)(Cn2ccc(=O)c3ccccc32)C(F)(F)F)CCOc2ccc(F)cc21 (stereo not drawn) [1-[3,3,3-Trifluoro-2-(6-fluoro-4-methylchroman-4-ylmethyl)-2-hydroxypropyl]-1H-quinolin-4-one]
CC(C)(CC(O)(Cn1ccc(=O)c2ccccc21)C(F)(F)F)c1cc(F)cc(F)c1 (stereo not drawn)
Cc1ccc(C(C)(C)CC(O)(Cn2ccc(=O)c3ccccc32)C(F)(F)F)cc1F (stereo not drawn) [1-[4-(3-Fluoro-4-methylphenyl)-2-hydroxy-4-methyl-2-trifluoromethylpentyl]-1H-quinolin-4-one]
CC(C)(CC(O)(Cn1ccc(=O)c2cccc(F)c21)C(F)(F)F)c1cc(F)ccc1O (stereo not drawn) [8-Fluoro-1-[4-(5-fluoro-2-hydroxyphenyl)-2-hydroxy-4-methyl-2-trifluoromethylpentyl]-1H-quinolin-4-one]
Cc1cc(C)cc(C(C)(C)CC(O)(Cn2ccc(=O)c3ccccc32)C(F)(F)F)c1 (stereo not drawn)
COc1ccc(CO)cc1C(C)(C)CC(O)(Cn1ccc(=O)c2ccccc21)C(F)(F)F (stereo not drawn) [1-[2-Hydroxy-4-(5-hydroxymethyl-2-methoxyphenyl)-4-methyl-2-trifluoromethylpentyl]-1H-quinolin-4-one]
CC(C)(CC(O)(Cn1ccc(=O)c2ccccc21)C(F)(F)F)c1cccc(Br)c1 (stereo not drawn) [1-[4-(3-Bromophenyl)-2-hydroxy-4-methyl-2-trifluoromethylpentyl]-1H-quinolin-4-one]
CSc1cc2c(c(C(C)(C)CC(O)(Cn3ccc(=O)c4ccccc43)C(F)(F)F)c1)OCC2 (stereo not drawn) [1-[2-Hydroxy-4-methyl-4-(5-methylsulfanyl-2,3-dihydrobenzofuran-7-yl)-2-trifluoromethylpentyl]-1H-quinolin-4-one]
CC(C)(CC(O)(Cn1ccc(=O)c2ccccc21)C(F)(F)F)c1cccc(C2OCCCO2)c1 (stereo not drawn) [1-[4-(3-[1,3]Dioxan-2-ylphenyl)-2-hydroxy-4-methyl-2-trifluoromethylpentyl]-1H-quinolin-4-one]
CC(C)(CC(O)(Cn1ccc(=O)c2ncccc21)C(F)(F)F)c1cc(S(C)(=O)=O)cc2c1OCC2 (stereo not drawn) [1-[2-Hydroxy-4-(5-methanesulfonyl-2,3-dihydrobenzofuran-7-yl)-4-methyl-2-trifluoromethylpentyl]-1H-[1,5]naphthyridin-4-one]
COc1ccc(F)cc1C(C)(C)CC(O)(Cn1cc(C(F)(F)F)cc(Cl)c1=O)C(F)(F)F (stereo not drawn) [3-Chloro-1-[4-(5-fluoro-2-methoxyphenyl)-2-hydroxy-4-methyl-2-trifluoromethylpentyl]-5-trifluoromethyl-1H-pyridin-2-one]
CCOc1ccc(F)cc1C(C)(C)CC(O)(Cn1ccc(=O)c2ccccc21)C(F)(F)F (stereo not drawn) [1-[4-(2-Ethoxy-5-fluorophenyl)-2-hydroxy-4-methyl-2-trifluoromethylpentyl]-1H-quinolin-4-one]
COc1c(C)cc(C)cc1C(C)(C)CC(O)(Cn1ccc(=O)c2ccccc21)C(F)(F)F (stereo not drawn)
COc1ccc(F)cc1C(C)(C)CC(O)(Cn1ccc(=O)c2ccccc21)C(F)(F)F (stereo not drawn) [1-[4-(5-Fluoro-2-methoxyphenyl)-2-hydroxy-4-methyl-2-trifluoromethylpentyl]-1H-quinolin-4-one]
COc1ccc(F)cc1C(C)(C)CC(O)(CN1CCSc2ccccc21)C(F)(F)F (stereo not drawn) [2-(2,3-Dihydrobenzo[1,4]thiazin-4-ylmethyl)-1,1,1-trifluoro-4-(5-fluoro-2-methoxyphenyl)-4-methylpentan-2-ol]
COc1cc(F)ccc1C(C)(C)CC(O)(Cn1ccc(=O)c2ccccc21)C(F)(F)F (stereo not drawn)
COc1ccc(F)cc1C(C)(C)CC(O)(Cn1ccc(=O)c2ccc(F)cc21)C(F)(F)F (stereo not drawn) [7-Fluoro-1-[4-(5-fluoro-2-methoxyphenyl)-2-hydroxy-4-methyl-2-trifluoromethylpentyl]-1H-quinolin-4-one]
CC(C)(CC(O)(Cn1ccc(=O)c2ccccc21)C(F)(F)F)c1ccc(F)c(C2OCCCO2)c1 (stereo not drawn)
COc1ccc(-c2cccs2)cc1C(C)(C)CC(O)(Cn1ccc(=O)c2ccccc21)C(F)(F)F (stereo not drawn) [1-[2-Hydroxy-4-(2-methoxy-5-thiophen-2-ylphenyl)-4-methyl-2-trifluoromethylpentyl]-1H-quinolin-4-one]
CC(C)(CC(O)(Cn1ccc(=O)c2ccccc21)C(F)(F)F)c1cc(Cl)cc2c1OCC2 (stereo not drawn) [1-[4-(5-Chloro-2,3-dihydrobenzofuran-7-yl)-2-hydroxy-4-methyl-2-trifluoromethylpentyl]-1H-quinolin-4-one]
Cc1ccc(F)cc1C(C)(C)CC(O)(Cn1ccc(=O)c2ccccc21)C(F)(F)F (stereo not drawn)
COc1cccc(C(C)(C)CC(O)(Cn2ccc(=O)c3ccccc32)C(F)(F)F)c1 (stereo not drawn) [1-[2-Hydroxy-4-(3-methoxyphenyl)-4-methyl-2-trifluoromethylpentyl]-1H-quinolin-4-one]
Cc1ccc(F)cc1C(C)(C)CC(O)(Cn1ccc(=O)c2ncccc21)C(F)(F)F (stereo not drawn) [1-[4-(5-Fluoro-2-methylphenyl)-2-hydroxy-4-methyl-2-trifluoromethylpentyl]-1H-[1,5]naphthyridin-4-one]
CC(C)(CC(O)(CN1CCN(C(=O)c2ccco2)CC1)C(F)(F)F)c1cc(F)ccc1O (stereo not drawn) [{4-[4-(5-Fluoro-2-hydroxyphenyl)-2-hydroxy-4-methyl-2-trifluoromethylpentyl]piperazin-1-yl}furan-2-ylmethanone]
CC(C)(CC(O)(Cn1ccc(=O)c2ccccc21)C(F)(F)F)c1cc(F)cc2c1OCC2 (stereo not drawn)
COc1ccc(F)cc1C(C)(C)CC(O)(Cn1ccc(=O)c2cc(Cl)ccc21)C(F)(F)F (stereo not drawn) [6-Chloro-1-[4-(5-fluoro-2-methoxyphenyl)-2-hydroxy-4-methyl-2-trifluoromethylpentyl]-1H-quinolin-4-one]
COc1ccc(F)cc1C(C)(C)CC(O)(Cn1ccc(=O)c2ccc(Cl)cc21)C(F)(F)F (stereo not drawn) [7-Chloro-1-[4-(5-fluoro-2-methoxyphenyl)-2-hydroxy-4-methyl-2-trifluoromethylpentyl]-1H-quinolin-4-one]
CC(C)Oc1ccc(F)cc1C(C)(C)CC(O)(Cn1ccc(=O)c2ccccc21)C(F)(F)F (stereo not drawn)
